Publication PMC8312697, “Mechanistic Investigations Support Liver Safety of Ubrogepant” (Toxicological Sciences, 2020)
Read-outs that look alike come from different tables or passages of the source.

Tests used:
[1] = test system: HEPATOPAC hepatocyte coculture; assay: HEPATOPAC urea synthesis (mitochondrial function); assay type: cell-based, rat; conditions: 50 µM
Description: Effects of test agents on mitochondrial function were assessed from media collected in the same HEPATOPAC studies by monitoring urea synthesis rates ([Khetani et al., 2013]).

Clinical study exposures = assay type: in vivo, human
monkeys = assay: Conventional nonclinical toxicology study, NHP; conditions: 9M NHP
Description: Conventional animal toxicology studies in rats and monkeys were performed by Merck & Co, Inc (West Point, Pennsylvania).

HepG2 cells = assay: Oxidative stress assay (ROS, DHE fluorescence); assay type: cell-based, human
Description: Three independent studies in triplicate were conducted on HepG2 cells, and two independent studies in triplicate were conducted on primary human hepatocytes.
To assess the potential for ubrogepant to induce oxidative stress, assays to measure formation of reactive oxygen species (ROS) were conducted by Cyprotex. HepG2 cells were cultured in triplicate with ubrogepant for 6 or 24 hours at concentrations ranging from 0.01 – 150 μM, and ROS formation was assayed by DHE fluorescence assay. HepG2 cells have reduced metabolic activity relative to primary human hepatocytes.^3,4 Three independent studies in triplicate were conducted on HepG2 cells.
To assess the potential for MK-3207 to induce oxidative stress, assays to measure formation of ROS were conducted by Cyprotex. HepG2 cells were cultured in triplicate with MK-3207 for 6 or 24 hours at concentrations ranging from 0.01 – 150 μM and ROS formation was assayed by DHE fluorescence assay. HepG2 cells have reduced metabolic activity relative to primary human hepatocytes.^3,4 Three independent studies in triplicate were conducted.

RNS/ROS production = assay: DILIsym fit of ROS data (oxidative stress parameter); set-up: species or system human; conditions: fit of 24-hour HepG2 ROS data
From the text: Parameter values for telcagepant-mediated induction of oxidative stress were identified by simulating the experimental data in DILIsym® using a DILIsym® dosing scheme meant to represent in vitro conditions.
Parameter values for ubrogepant-mediated induction of oxidative stress were identified by simulating the experimental data in DILIsym using a DILIsym drug exposure scheme designed to represent in vitro conditions.
Parameter values for MK-3207-mediated induction of oxidative stress were identified by simulating the experimental data in DILIsym using a DILIsym drug exposure scheme meant to represent in vitro conditions. Intracellular compound concentrations were also assayed in identical cell cultures; the experimental method was the same as that described above for ubrogepant.

[2] = test system: Nrf2 oxidative stress and Nrf1 proteasomal stress pathways; assay: In vitro rat HEPATOPAC gene expression BA-LRA; assay type: cell-based; conditions: 50 μM
[3] = test system: mitochondrial electron transport chain (ETC); assay: MITOsym/DILIsym fit of OCR data (ETC inhibition parameters); set-up: species or system human; conditions: for DILIsym ETC inhibition constant: MITOsym value × scaling factor of 34.7
Description: MITOsym® parameters were then translated to DILIsym® parameters using a scaling factor calculated using classic exemplar compounds that perturb different pathways of mitochondrial respiration (e.g., rotenone for ETC inhibition, FCCP for uncoupling).
The parameter values for ubrogepant were determined by reproducing the cell count-corrected OCR data in MITOsym®, a mechanistic model of mitochondrial function in the in vitro setting. MITOsym parameters were then translated to DILIsym parameters using a scaling factor calculated using classic exemplar compounds that perturb different pathways of mitochondrial respiration (e.g., rotenone for ETC inhibition, FCCP for uncoupling).
Mitochondrial toxicity parameter values for MK-3207 were determined by reproducing the cell count-corrected OCR response to MK-3207 dosing in both MITOsym and DILIsym. The ETC inhibition coefficient from the MITOsym parameters was then translated to a DILIsym parameter using a scaling factor calculated using classic exemplar compounds that perturb different pathways of mitochondrial respiration (e.g., rotenone for ETC inhibition, FCCP for uncoupling), similar to ubrogepant. The maximum inhibition potency from the DILIsym fit was combined with this value in the final parameter set.

human hepatocytes = assay: Covalent protein binding in human hepatocytes / reactive metabolite body burden; assay type: in vitro ADME; conditions: for Projected body burden from covalent-binding studies: covalent protein binding × dose, telcagepant 560 mg, MK-3207 80 mg, ubrogepant 200 mg; for covalent protein binding: radioactivity bound in human hepatocytes
Description: The “body burden” is a quantitative estimate of reactive metabolite exposure that was determined for each drug based on in vitro covalent protein binding of radioactivity in human hepatocytes (in pmol equivalents/mg) multiplied by a clinically effective daily dose (in mg/day). Detailed methods used in the in vitro human hepatocyte covalent-binding experiments have been reported by [Nakayama et al. (2009)].

MRP3 = biological target: T1, MRP3 (Homo sapiens, UniProt O15438); assay: MRP3 vesicular transport inhibition assay; assay type: biochemical; conditions: for inhibition of MRP3-mediated probe substrate transport: vesicular transport inhibition assay
T1 construct: Solvo Biotechnology (Szeged, Hungary), contract laboratory that ran the assay
Description: To assess the functional impact of ubrogepant on the human ABC efflux transporters BSEP, MRP3, and MRP4, in vitro vesicular transport inhibition assays were conducted by Solvo Biotechnology (Szeged, Hungary). The ability of ubrogepant to inhibit the BSEP-mediated transport (and accumulation) of a probe substrate was tested at concentrations ranging from 0.04 – 30 μM, where the latter defined the upper limit of compound solubility in the BSEP assay buffer. For the MRP3 and MRP4 vesicle-based transporter assessments, ubrogepant concentrations of 0.1 to 70 μM were used. To assess the functional impact of ubrogepant on the human SLC (uptake) transporter NTCP, in vitro experiments were performed using HEK293 cells stably expressing NTCP. The ability of ubrogepant to inhibit NTCP-mediated uptake (and accumulation) of taurocholate was tested at concentrations ranging from 0.04 – 30 μM.
To assess the functional impact of MK-3207 on the human ABC efflux transporters BSEP, MRP3 and MRP4, in vitro vesicular transport inhibition assays were conducted by Solvo Biotechnology (Szeged, Hungary) and overseen by DSSI. BSEP transport was assessed in the presence of 0.5-30 µM MK-3207; MRP3 and MRP4 transport was assessed in the presence of 0.11-80 µM MK-3207. The upper limits of these ranges were determined by compound solubility in each assay buffer. NTCP transporter inhibition was assessed in NTCP-expressing HEK293 cells in the presence of 0.03 – 25 µM MK-3207.
IC50 values for MK-3207 were calculated for each of the transporters; these values were used as inputs into DILIsym. It was assumed that inhibition type for MK-3207 for MRP3 and MRP4 was mixed with α= 5; this is a typical value for bile acid transporter inhibitors in the experience of the DSS team.

[4] = curve fitting assuming maximum inhibition at higher concentrations is 100%, read-out: MRP3 estimated lowest possible IC50

T1 sequence (O15438 whole entry): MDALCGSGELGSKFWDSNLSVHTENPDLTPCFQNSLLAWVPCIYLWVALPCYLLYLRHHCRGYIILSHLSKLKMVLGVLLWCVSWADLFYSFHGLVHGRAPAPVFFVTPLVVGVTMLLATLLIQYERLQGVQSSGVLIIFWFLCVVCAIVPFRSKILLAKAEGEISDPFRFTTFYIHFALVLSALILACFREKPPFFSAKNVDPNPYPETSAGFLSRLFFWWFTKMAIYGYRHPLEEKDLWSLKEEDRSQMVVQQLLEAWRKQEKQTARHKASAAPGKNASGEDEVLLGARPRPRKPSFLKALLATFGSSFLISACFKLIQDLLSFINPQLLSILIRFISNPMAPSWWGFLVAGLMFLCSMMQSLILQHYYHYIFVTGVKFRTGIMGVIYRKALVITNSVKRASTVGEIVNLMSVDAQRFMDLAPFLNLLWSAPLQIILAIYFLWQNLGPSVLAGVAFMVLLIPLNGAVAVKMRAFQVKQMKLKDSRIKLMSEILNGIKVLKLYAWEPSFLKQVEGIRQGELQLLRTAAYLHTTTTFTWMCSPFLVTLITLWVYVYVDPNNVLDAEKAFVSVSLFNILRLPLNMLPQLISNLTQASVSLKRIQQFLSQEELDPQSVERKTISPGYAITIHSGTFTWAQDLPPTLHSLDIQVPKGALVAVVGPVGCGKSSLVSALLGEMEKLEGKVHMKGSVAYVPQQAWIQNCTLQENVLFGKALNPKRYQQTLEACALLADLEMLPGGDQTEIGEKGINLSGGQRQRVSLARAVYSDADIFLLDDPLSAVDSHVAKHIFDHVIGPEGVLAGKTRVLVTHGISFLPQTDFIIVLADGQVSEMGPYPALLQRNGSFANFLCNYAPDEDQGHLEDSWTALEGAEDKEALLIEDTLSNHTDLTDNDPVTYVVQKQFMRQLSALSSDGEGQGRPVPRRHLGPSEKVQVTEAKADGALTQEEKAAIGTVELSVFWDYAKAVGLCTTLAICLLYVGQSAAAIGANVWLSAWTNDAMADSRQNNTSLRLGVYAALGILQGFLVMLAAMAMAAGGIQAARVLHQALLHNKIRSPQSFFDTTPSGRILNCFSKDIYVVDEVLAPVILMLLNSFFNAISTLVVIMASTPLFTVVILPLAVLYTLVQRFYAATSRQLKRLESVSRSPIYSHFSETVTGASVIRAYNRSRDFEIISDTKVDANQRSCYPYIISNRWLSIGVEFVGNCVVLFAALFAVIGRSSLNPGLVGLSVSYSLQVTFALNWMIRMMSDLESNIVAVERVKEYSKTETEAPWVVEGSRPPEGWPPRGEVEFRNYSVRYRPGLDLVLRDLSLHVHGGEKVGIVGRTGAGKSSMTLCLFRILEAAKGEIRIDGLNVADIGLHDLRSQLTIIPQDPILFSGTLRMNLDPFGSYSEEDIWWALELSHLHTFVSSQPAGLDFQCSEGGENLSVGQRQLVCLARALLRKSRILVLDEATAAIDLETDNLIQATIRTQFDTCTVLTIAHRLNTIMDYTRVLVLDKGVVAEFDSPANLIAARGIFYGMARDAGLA

SMILES | effect on urea (mitochondrial function) [1] | Pivotal conventional nonclinical toxicology study liver findings (monkeys) | exposure margin (monkeys) [×] | induction of oxidative stress (ROS formation) (HepG2 cells; HepG2, 6-hour incubation) | induction of oxidative stress (ROS formation) (HepG2 cells; HepG2, 24-hour incubation) | RNS/ROS production rate constant (RNS/ROS production) | BA-LRA score [2] | Projected body burden from covalent-binding studies (human hepatocytes) | covalent protein binding (human hepatocytes) [pmol equivalents/mg] | inhibition of MRP3-mediated probe substrate transport (MRP3) | DILIsym ETC inhibition constant [3] [µM] | IC50 (MRP3; [4]) [µM] | further results
O=C(CN1C(=O)C2(CCCC2)NC[C@H]1c1cc(F)cc(F)c1)Nc1ccc2c(c1)C[C@@]1(C2)C(=O)Nc2ncccc21 [MK-3207] | No effect on urea | no liver safety signal | 4 | not evident | modest induction of oxidative stress | 0.00022 mL/nmol/h | > 0.2 | 14 720 | 184 | inhibited |  |  | clinical study exposure (mean) (Clinical study exposures; Phase 2, 900 mg daily): b Phase 2 clinical study exposures based on mean of 60 μM/h at dose of 900 mg daily; original projected daily dose was 80 mg.; maximal inhibition value (ETC) ([3]; DILIsym fit of HepG2 OCR data): 0.35; ETC inhibition coefficient ([3]; MITOsym constant translated into DILIsym, 1-hour and 24-hour HepG2 OCR data): 0.347 µM; IC50 (MRP3; used as basolateral transporter inhibition constant, read-out: MRP3 calculated IC50): 49.9 µM
C[C@@H]1[C@H](c2ccccc2)C[C@H](NC(=O)c2cnc3c(c2)C[C@@]2(C3)C(=O)Nc3ncccc32)C(=O)N1CC(F)(F)F [Ubrogepant] |  | no liver safety signal | 163 | not evident | modest induction of oxidative stress | 0.00016 mL/nmol/h |  | 4600 | 23 | inhibited | 472 | ≥ 85.9 | clinical study exposure (Clinical study exposures; Phase 3, 100 mg QD): c Phase 3 clinical study exposures based on 2 μM/h at dose of 100 mg QD.; MITOsym ETC inhibition constant ([3]; fit of 24-hour HepG2 OCR data): 0.0136 mM; inhibition at 70 µM (MRP3; human, membrane vesicles with MRP3 (vesicular transport assay), 70 µM (solubility limit), read-out: maximum inhibition at the highest concentration tested, MRP3): < 50%
O=C(N[C@@H]1CC[C@@H](c2cccc(F)c2F)CN(CC(F)(F)F)C1=O)N1CCC(n2c(=O)[nH]c3ncccc32)CC1 [Telcagepant] | No effect on urea | no liver safety signal | 7 |  | modest induction of oxidative stress | 20,000 mL/mol/hr | > 0.2 | 14600 | 26 | inhibited | 17400 | ≥ 16.6 | clinical study exposure (mean) (Clinical study exposures; Phase 3, 280 mg BID (2 h apart)): a Phase 3 clinical study exposures based on mean of 70 μM/h at dose of 280 mg BID (2 h apart).; MITOsym ETC inhibition constant ([3]; fit of 1 hour HepG2 OCR data): 0.5 mM; inhibition at 20 µM (MRP3; human, membrane vesicles with MRP3 (vesicular transport assay), read-out: maximum inhibition at the highest concentration tested, MRP3): < 50%
